# Patent US20260242349A1, “N,N'-SULFONIMIDAMIDES AS ANTICANCER, ANTIINFLAMMATORY, ANTIFIBROTIC AND NEUROPROTECTIVE AGENTS” (Atux Iskay LLC, priority 2023, published 2026)
# System: D425 medulloblastoma cells
# Test: Cancer cell viability inhibition (CellTiter-Glo Luminescent Cell Viability Assay)
# Type: cell-based
# Conditions: 48 hours treatment, CellTiter-Glo luminescence, test range 1-30 uM, read-out: IC50 for D425 cell growth
# Protocol: D425 medulloblastoma cells were purchased from SigmaAldrich. D425 meduloblastoma cells were cultured in improved Dulbecco's modified Eagle's medium (DMEM) Richter's modification supplemented with 20% fetal bovine serum and 1% Penicillin-streptomycin. Incubation was performed at 37° C. and 5% CO2.
# D425 cells were seeded at 3000-3500 cells/90 ul growth medium per well on 96-well tissue culture plates. Cells were incubated overnight to allow them to recover. Next day cells were treated with tested compounds and incubated for 48 hours.
# Cell Proliferation assays in triplicate were performed at each concentration. Compounds test range was 1-30 uM (0, 5, 10, 15, 20, 25, and 30). The compounds were dissolved in DMSO. […]
# After treatment, cells were allowed to equilibrate at room temperature for one hour. Cell proliferation was measured by Luminescence quantification using Promega CellTiter-Glo Luminescent Cell Viability Assay. […] Luminescence intensity was measured using the Spectramax i3× plate reader.
# The Luminescence intensity data were analyzed using the computer software Graphpad Prism. In the absence of the compound, the luminescence intensity (Lt) in each data set was defined as 100% cell viability. The percent cell in the presence of each compound was calculated according to the following equation: % Cell=L/Lt, were L=the luminescence intensity in the presence of the compound. […]
smiles,measurement,value
N=S(=O)(Nc1ccc(OC(F)(F)F)cc1)N1CCCC(C2c3ccccc3CCc3ccccc32)C1 (stereo not shown) [Example 2],IC50,9.4 µM
